Measured values: publication PMC5286421, “Interactions of retinoids with the ABC transporters P-glycoprotein and Breast Cancer Resistance Protein” (Scientific Reports, 2017)
Read-outs that look alike come from different tables or passages of the source.

What was measured:
[1] = ref PubChem Compound Database (CID); cited from earlier work
[2] = test system: NIH 3T3 / NIH 3T3 MDR1 and MDCK / MDCK ABCG2 cells; assay: TMA-DPH steady-state fluorescence anisotropy (membrane fluidity); conditions: retinoids 100 μM, cyclosporin 10 μM, Ko143 2 μM; 10 min 37 °C
[3] = test system: NIH 3T3 / NIH 3T3 MDR1 and MDCK / MDCK ABCG2 cells; assay: DPH steady-state fluorescence anisotropy (membrane fluidity); conditions: retinoids 100 μM; for Effect on DPH fluorescence anisotropy: cyclosporin 10 μM, Ko143 2 μM, 10 min 37 °C, all tested cell lines
Pgp [4] = biological target: T1, Pgp (Homo sapiens, UniProt P08183); conditions: Sf9 membranes, Fig. 2c
T1 sequence (P08183 whole entry): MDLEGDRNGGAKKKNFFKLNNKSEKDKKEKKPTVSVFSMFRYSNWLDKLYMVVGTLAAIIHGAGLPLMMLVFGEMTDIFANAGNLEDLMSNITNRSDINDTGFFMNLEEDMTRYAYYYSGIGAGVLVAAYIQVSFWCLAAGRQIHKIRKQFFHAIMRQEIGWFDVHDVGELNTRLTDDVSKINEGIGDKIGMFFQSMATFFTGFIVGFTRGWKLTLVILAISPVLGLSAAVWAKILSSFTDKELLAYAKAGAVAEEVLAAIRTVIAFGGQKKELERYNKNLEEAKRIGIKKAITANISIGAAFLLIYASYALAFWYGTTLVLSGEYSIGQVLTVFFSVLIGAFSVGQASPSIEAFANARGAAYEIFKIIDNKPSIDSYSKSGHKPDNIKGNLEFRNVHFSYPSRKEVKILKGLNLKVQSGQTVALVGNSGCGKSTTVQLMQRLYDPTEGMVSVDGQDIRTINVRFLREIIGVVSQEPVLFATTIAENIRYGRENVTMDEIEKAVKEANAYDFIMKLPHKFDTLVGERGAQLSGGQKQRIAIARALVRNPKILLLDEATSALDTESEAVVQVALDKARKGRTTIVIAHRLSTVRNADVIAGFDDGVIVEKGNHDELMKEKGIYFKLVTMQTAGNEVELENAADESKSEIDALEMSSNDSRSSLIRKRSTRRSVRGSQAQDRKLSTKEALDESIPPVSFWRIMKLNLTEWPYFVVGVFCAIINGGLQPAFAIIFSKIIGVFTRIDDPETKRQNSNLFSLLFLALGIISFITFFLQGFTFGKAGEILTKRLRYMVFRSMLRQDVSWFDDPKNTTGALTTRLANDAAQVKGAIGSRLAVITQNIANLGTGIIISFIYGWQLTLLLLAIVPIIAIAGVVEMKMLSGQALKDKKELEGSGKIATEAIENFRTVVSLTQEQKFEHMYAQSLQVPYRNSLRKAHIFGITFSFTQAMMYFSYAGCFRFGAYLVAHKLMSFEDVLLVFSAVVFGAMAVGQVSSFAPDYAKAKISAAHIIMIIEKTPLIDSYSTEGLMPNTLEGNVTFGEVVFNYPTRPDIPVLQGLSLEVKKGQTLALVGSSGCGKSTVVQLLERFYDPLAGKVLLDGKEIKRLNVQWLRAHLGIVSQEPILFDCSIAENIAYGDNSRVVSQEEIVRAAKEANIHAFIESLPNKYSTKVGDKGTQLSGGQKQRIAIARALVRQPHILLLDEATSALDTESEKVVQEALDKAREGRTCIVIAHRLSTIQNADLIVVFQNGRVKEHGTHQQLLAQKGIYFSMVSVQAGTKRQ
Procedure: (§2) For ATPase activity measurements we used membrane samples derived from Sf9 (Spodoptera frugiperda) insect ovarian cells expressing human Pgp or ABCG2. cDNAs of the transporters were cloned into recombinant baculovirus transfer vectors, the Sf9 insect ovarian cells were cultured, and infected with the baculoviruses as described in ref. [52]. Sf9 cells overexpressing human Pgp and ABCG2 were harvested and cell membranes were isolated. The protein concentration of the membrane samples were determined by the Lowry method[53]. The ABCG2 expressing Sf9 membrane samples were loaded with cholesterol by cholesterol-methyl-beta-cyclodextrine complex in order to obtain high specific ATPase activity of the transporter[54]. Membrane samples were stored at −80 °C. The transporter expression of the membrane samples (5 μg membrane protein/slot) was routinely checked by immunoblot using the G-1 mAb (for Pgp) or BXP-21 mAb (for ABCG2) and a goat anti-mouse HRP-conjugated IgG secondary antibody. Both primary and secondary antibodies were from Santa Cruz Biotechnology Inc. (CA, USA) and applied at 1:5,000 dilution.
(§3) The vanadate-sensitive ATPase activity of Pgp and ABCG2 was determined by a colorimetric assay described in refs [32],[55]. Specific ATPase activity of the transporters was calculated from the amount of released inorganic phosphate. […] The absorbance of the samples was measured at 700 nm using a BioTek Synergy HT plate reader (BioTek Instruments, Winooski, USA).

ABCG2 [5] = biological target: T2, ABCG2 (Homo sapiens, UniProt Q9UNQ0); assay: Mitoxantrone accumulation test (ABCG2 transport activity) in MDCK ABCG2 cells; conditions: 20 min pre-treatment 37 °C, 5 μM mitoxantrone 40 min
T2 sequence (Q9UNQ0 1-655): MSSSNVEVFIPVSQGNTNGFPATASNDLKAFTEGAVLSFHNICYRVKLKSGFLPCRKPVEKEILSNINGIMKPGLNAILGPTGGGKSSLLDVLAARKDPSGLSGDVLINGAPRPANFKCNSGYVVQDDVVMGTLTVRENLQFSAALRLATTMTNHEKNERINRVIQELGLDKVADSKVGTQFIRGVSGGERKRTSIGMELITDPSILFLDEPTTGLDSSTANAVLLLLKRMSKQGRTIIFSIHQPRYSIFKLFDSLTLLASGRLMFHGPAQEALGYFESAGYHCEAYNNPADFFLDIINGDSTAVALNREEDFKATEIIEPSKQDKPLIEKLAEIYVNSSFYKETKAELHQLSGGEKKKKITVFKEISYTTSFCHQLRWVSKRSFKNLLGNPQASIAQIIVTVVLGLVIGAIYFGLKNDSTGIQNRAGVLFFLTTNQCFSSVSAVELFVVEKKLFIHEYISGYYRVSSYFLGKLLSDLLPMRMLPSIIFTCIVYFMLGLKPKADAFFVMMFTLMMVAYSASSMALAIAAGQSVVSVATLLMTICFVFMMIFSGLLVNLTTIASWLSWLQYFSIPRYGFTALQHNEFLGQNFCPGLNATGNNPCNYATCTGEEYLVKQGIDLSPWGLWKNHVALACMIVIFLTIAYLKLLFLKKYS
Procedure: (§4) Calcein-AM was applied to measure the transport activity of Pgp[51], while ABCG2 mediated transport was measured in mitoxantrone accumulation tests[18]. Cells were harvested and washed three times in PBS containing 7 mM glucose (gl-PBS). […] Dead cells were excluded from the analysis on the basis of propidium iodide (PI) staining.
(§5) Flow cytometric analysis was carried out on a Becton Dickinson FACSAria III Cell Sorter (Becton Dickinson, Mountain View, CA, USA). Calcein was excited by the 488 nm line of a solid state laser and the emitted light was detected using a 502 nm dichroic mirror and a 530/30 nm band-pass filter. […] AlexaFluor647 and mitoxantrone signals were detected with a 633 nm excitation laser and a 660/20 nm band-pass filter.

[6] = biological target: P-gp (human Pgp), basal vanadate-sensitive ATPase activity (Homo sapiens, UniProt P08183); assay: in vitro; conditions: membranes of Sf9 insect cells expressing human Pgp, IC50 values, 10 min pre-incubation 37 °C, 3 mM ATP/Mg2+ 25 min, mean ± SEM, n=3
P-gp (human Pgp), basal vanadate-sensitive ATPase activity, sequence (P08183 whole entry): as the sequence (P08183 whole entry) above
Procedure: as §2, §3

ABCG2 [7] = biological target: T2, ABCG2; assay: Vanadate-sensitive ATPase activity of ABCG2 in Sf9 membrane preparations; format: biochemical; conditions: cholesterol-loaded Sf9 membranes, mean ± SEM, n=3
Procedure: For ATPase activity measurements we used membrane samples derived from Sf9 (Spodoptera frugiperda) insect ovarian cells expressing human Pgp or ABCG2. cDNAs of the transporters were cloned into recombinant baculovirus transfer vectors, the Sf9 insect ovarian cells were cultured, and infected with the baculoviruses as described in ref. [52]. Sf9 cells overexpressing human Pgp and ABCG2 were harvested and cell membranes were isolated. The protein concentration of the membrane samples were determined by the Lowry method. The ABCG2 expressing Sf9 membrane samples were loaded with cholesterol by cholesterol-methyl-beta-cyclodextrine complex in order to obtain high specific ATPase activity of the transporter. Membrane samples were stored at −80 °C. The transporter expression of the membrane samples (5 μg membrane protein/slot) was routinely checked by immunoblot using the G-1 mAb (for Pgp) or BXP-21 mAb (for ABCG2) and a goat anti-mouse HRP-conjugated IgG secondary antibody. Both primary and secondary antibodies were from Santa Cruz Biotechnology Inc. (CA, USA) and applied at 1:5,000 dilution.
The vanadate-sensitive ATPase activity of Pgp and ABCG2 was determined by a colorimetric assay described in refs [32],[55]. Specific ATPase activity of the transporters was calculated from the amount of released inorganic phosphate. […]. The absorbance of the samples was measured at 700 nm using a BioTek Synergy HT plate reader (BioTek Instruments, Winooski, USA).
The half-inhibitory doses (IC50) of retinoids were determined by fitting the dose-response relationships with a four parameter sigmoidal curve, where Amax and Amin are the ATPase activities measured at zero and at infinitely high inhibitor concentrations, respectively, n is the Hill coefficient and x is the concentration of the inhibitor:
Upon studying the kinetics of inhibition of the substrate-stimulated ATPase activity by retinoids data points were fitted with a modified form of the Michaelis-Menten equation[56] which includes the Hill coefficient, n: […]
v0 is the basal ATPase activity measured in the absence of the stimulatory substrate, while vmax is the maximal extent of ATPase stimulation and KM is the Michaelis constant (i.e. the substrate concentration at which the reaction rate is half of vmax).

Pgp [8] = biological target: T1, Pgp; assay: biochemical; conditions: IC50 values, Pgp stimulated (verapamil-stimulated) ATPase activity, 40 μM verapamil; Sf9 membranes; mean ± SEM, n=3
Procedure: as §2, §3

[9] = test system: Pgp-positive and Pgp-negative NIH 3T3 cells; assay: AlamarBlue in vitro cytotoxicity assay; format: cell-based, mouse; conditions: 72 h, NIH 3T3 and NIH 3T3 MDR1, Supplementary Fig. S3
Procedure: Supplementary Fig. S3: Cytotoxic effect of retinyl-acetate on Pgp-positive and Pgp-negative NIH 3T3 cells. The AlamarBlue (Serotec, UK) based in vitro cytotoxicity assay was performed as previously described 1. Cells were seeded in 96-well plates at a cell density of 5 × 10^3 cells/well. 24 hours later retinyl-acetate was added at different concentrations and the plates were further incubated for 72 h at 37 °C. The cell viability was determined measuring the 530/590 nm fluorescence intensity of the dye in an automated microplate reader (BioTec Synergy HT, US). The AlamarBlue fluorescence intensity of the samples was normalized to the fluorescence of the retinyl-acetate untreated samples, and plotted as a function of retinyl-acetate concentration. The data points are means of eight parallel samples (±SD).
(§1) (1 picture or pasted object on this page, not shown here)

Pgp [10] = biological target: T1, Pgp; assay: Calcein accumulation test (Pgp transport activity) in NIH 3T3 MDR1 cells; conditions: 20 min pre-treatment 37 °C, 500 nM calcein-AM 20 min
Procedure: as §4, §5

[11] = test system: Pgp- and ABCG2-negative NIH 3T3 and MDCK cells; assay: Calcein and mitoxantrone accumulation in transporter negative cells; format: cell-based, mouse / canine; conditions: NIH 3T3 (calcein) and MDCK (mitoxantrone), Supplementary Fig. S1, 50 µM
Procedure: Supplementary Fig. S1: Effect of retinoid derivatives on the calcein (a) and
mitoxantrone (c) accumulation and viability (b, d) of Pgp- and ABCG2-negative NIH
3T3 and MDCK cells. Cells were pre-treated with retinoids added at 50 µM concentration
Cell viability was determined on the basis of propidium iodide exclusion.
as §1

Compound	LogP (octanol-water partition coefficient, LogPow) [1]	Effect on TMA-DPH fluorescence anisotropy [2]	Effect on DPH fluorescence anisotropy [3]	Effect on the basal ATPase activity of Pgp (Pgp [4])	Effect on mitoxantrone accumulation of ABCG2 expressing cells (ABCG2 transport activity) (ABCG2 [5])	IC50 at 25 min [6] [µM]	IC50 (ABCG2 [7]; 10 μM quercetin, read-out: IC50 values, ABCG2 stimulated (quercetin-stimulated) ATPase activity) [µM]	IC50 (ABCG2 [7]; read-out: IC50 values, ABCG2 basal ATPase activity) [µM]	IC50 (Pgp [8]) [µM]	Cytotoxicity profile in Pgp+ versus Pgp− cells [9]	Effect on calcein accumulation of Pgp expressing cells (Pgp transport activity) (Pgp [10])	Effect on substrate accumulation of transporter negative cells [11]	Effect on DPH anisotropy in transporter expressing compared to non-expressing cells ([3]; Pgp+ vs Pgp− NIH 3T3, ABCG2 expressing vs non-expressing MDCK)
COc1ccc2c3c([nH]c2c1)[C@H](CC(C)C)N1C(=O)[C@H](CCC(=O)OC(C)(C)C)NC(=O)[C@@H]1C3 [Ko143]	3.5	do not affect the overall membrane fluidity	do not affect the overall membrane fluidity										
CC(=O)OC/C=C(C)/C=C/C=C(C)/C=C/C1=C(C)CCCC1(C)C [Retinyl-acetate]	6.3		increased the DPH fluorescence anisotropy values significantly	slightly stimulated	increased the cellular accumulation of the fluorescent transporter substrates in a concentration dependent manner	36.8 ± 4	70.4 ± 7.3	18.9 ± 4	19.1 ± 5	identical cytotoxicity profile	increased the cellular accumulation of the fluorescent transporter substrates in a concentration dependent manner	did not have any effect	significantly lower effect
